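Step 1: Grow cells in 96-well plates. Step 2: Expose to compound for 48 hours at 5 concentrations. Step 3: Interpolate endpoints linearly; if unreached, use highest concentration. GI50: concentration for 50% inhibition of growth.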 The source made the active and inactive calls. Rule as the data show it: active = GI50 up to about 1.1 µM and inactive = higher.
Legend:
Test in all cases: DTP human tumour cell line panel, 48 h
[1] = tested on: HCT-116
[2] = tested on: SNB-19
[3] = tested on: K562
[4] = tested on: MDA-MB-435
[5] = tested on: OVCAR-5
[6] = tested on: DU-145
[7] = tested on: SR
[8] = tested on: Malme-3M
[9] = tested on: IGROV-1
[10] = tested on: SK-MEL-5
[11] = tested on: SW-620
[12] = tested on: RPMI-8226
[13] = tested on: NCI/ADR-RES
[14] = tested on: SK-MEL-2
[15] = tested on: HCT-15
[16] = tested on: OVCAR-8
[17] = tested on: MDA-MB-231
[18] = tested on: KM12
[19] = tested on: SN12C
[20] = tested on: CCRF-CEM

Row | SMILES | GI50 [1] | GI50 [2] | GI50 [3] | GI50 [4] | GI50 [5] | GI50 [6] | GI50 [7] | GI50 [8] | GI50 [9] | GI50 [10] | GI50 [11] | GI50 [12] | GI50 [13] | GI50 [14] | GI50 [15] | GI50 [16] | GI50 [17] | GI50 [18] | GI50 [19] | GI50 [20]
1 | O=S1(=O)CCN(Cc2ccccn2)CC1 | > 100 µM (inactive) | > 100 µM (inactive) | > 100 µM (inactive) | > 100 µM (inactive) | > 100 µM (inactive) | > 100 µM (inactive) | > 100 µM (inactive) | > 100 µM (inactive) | > 100 µM (inactive) | > 100 µM (inactive) | > 100 µM (inactive) | > 100 µM (inactive) | > 100 µM (inactive) | > 100 µM (inactive) | > 100 µM | > 100 µM (inactive) | > 100 µM (inactive) | > 100 µM (inactive) | > 100 µM (inactive) | –
2 | O=C(O)C(=O)Cc1ccc2c(c1)OCO2 | > 100 µM (inactive) | > 100 µM (inactive) | > 100 µM (inactive) | > 100 µM (inactive) | > 100 µM (inactive) | > 100 µM (inactive) | > 100 µM (inactive) | – | > 100 µM (inactive) | > 100 µM (inactive) | > 100 µM (inactive) | > 100 µM (inactive) | > 100 µM (inactive) | > 100 µM (inactive) | > 100 µM | > 100 µM (inactive) | > 100 µM (inactive) | > 100 µM (inactive) | > 100 µM (inactive) | 18.9 µM (inactive)
3 | O=C(/C=C/c1ccc2c(c1)OCO2)NCc1ccco1 | > 100 µM (inactive) | 50.9 µM (inactive) | 82.6 µM (inactive) | > 100 µM (inactive) | > 100 µM (inactive) | > 100 µM (inactive) | 5.09 µM (inactive) | > 100 µM (inactive) | 56 µM (inactive) | > 100 µM (inactive) | > 100 µM (inactive) | – | > 100 µM (inactive) | > 100 µM (inactive) | > 100 µM | > 100 µM (inactive) | > 100 µM (inactive) | > 100 µM (inactive) | > 100 µM (inactive) | > 100 µM (inactive)
4 | CN(C)CCCNc1ccc2nnn3c4ccc(OC(=O)c5ccccc5)cc4c(=O)c1c23 | 3.15 µM (inactive) | 10.9 µM (inactive) | 1.81 µM (inactive) | 6.4 µM (inactive) | 14.4 µM (inactive) | 8.26 µM (inactive) | 0.697 µM (active) | 11.5 µM (inactive) | 2.11 µM (inactive) | – | 4.53 µM (inactive) | 3.29 µM (inactive) | 12.5 µM (inactive) | 15.9 µM (inactive) | 5.36 µM | 4.55 µM (inactive) | 10.4 µM (inactive) | 4.92 µM (inactive) | 5.06 µM (inactive) | 1.08 µM (active)
5 | O=C(O)c1nc2ccc(C(F)(F)F)cc2nc1NCc1ccc(F)cc1 | 15.9 µM (inactive) | 24.5 µM (inactive) | 19.6 µM (inactive) | > 100 µM (inactive) | 22.4 µM (inactive) | > 100 µM (inactive) | 15.3 µM (inactive) | – | 25.4 µM (inactive) | 16.9 µM (inactive) | 33 µM (inactive) | 21 µM (inactive) | 35.5 µM (inactive) | 19.5 µM (inactive) | 21.2 µM | 21.5 µM (inactive) | 32.4 µM (inactive) | 26.4 µM (inactive) | 17.5 µM (inactive) | 37.3 µM (inactive)
6 | COc1c(C)c(C/C=C(\C)CCCCO)c(OC)c(OC)c1OC | > 100 µM (inactive) | > 100 µM (inactive) | 24.4 µM (inactive) | > 100 µM (inactive) | > 100 µM (inactive) | > 100 µM (inactive) | 95.7 µM (inactive) | – | 45.2 µM (inactive) | 88.7 µM (inactive) | > 100 µM (inactive) | 10.3 µM (inactive) | > 100 µM (inactive) | > 100 µM (inactive) | > 100 µM | > 100 µM (inactive) | > 100 µM (inactive) | 19.1 µM (inactive) | 28.7 µM (inactive) | 45.6 µM (inactive)
7 | NC(=O)NCCCC(NC(=O)OCCCCCn1ccc(=O)[nH]c1=O)C(=O)O (stereo not drawn) | > 100 µM (inactive) | > 100 µM (inactive) | > 100 µM (inactive) | > 100 µM (inactive) | > 100 µM (inactive) | > 100 µM (inactive) | > 100 µM (inactive) | – | 23.1 µM (inactive) | – | > 100 µM (inactive) | > 100 µM (inactive) | > 100 µM (inactive) | > 100 µM (inactive) | > 100 µM | > 100 µM (inactive) | > 100 µM (inactive) | > 100 µM (inactive) | > 100 µM (inactive) | > 100 µM (inactive)
8 | CC(=O)OCC12CN(C#N)C3C4COC(CC41)C1(C(=O)N(C)c4ccccc41)C32 (stereo not drawn) | 19.3 µM (inactive) | – | 14.8 µM (inactive) | 26.8 µM (inactive) | 33.4 µM (inactive) | 15.4 µM (inactive) | 14.6 µM (inactive) | 21 µM (inactive) | 24 µM (inactive) | 26.7 µM (inactive) | 22 µM (inactive) | 9.73 µM (inactive) | 22.2 µM (inactive) | 24.9 µM (inactive) | 17.1 µM | 19.5 µM (inactive) | 13.4 µM (inactive) | 36.5 µM (inactive) | 20.3 µM (inactive) | 11.8 µM (inactive)
9 | CC1=CC[C@](C)(O)[C@@]2(C)CC[C@H]3C(=C(C)C)C(=O)C[C@]3(C)C[C@H]12 | 14.1 µM (inactive) | > 50 µM (inactive) | 9.2 µM (inactive) | 18.7 µM (inactive) | > 50 µM (inactive) | > 50 µM (inactive) | 12.5 µM (inactive) | – | 19.3 µM (inactive) | 27.8 µM (inactive) | 27 µM (inactive) | 11.2 µM (inactive) | 16.5 µM (inactive) | > 50 µM (inactive) | 12.3 µM | 29.2 µM (inactive) | > 50 µM (inactive) | 12.9 µM (inactive) | 34.8 µM (inactive) | 10.8 µM (inactive)
10 | COC(=O)c1ccccc1C1CN=NC12Cc1ccc3ccccc3c1C2=O (stereo not drawn) | – | > 100 µM (inactive) | > 100 µM (inactive) | 30.7 µM (inactive) | > 100 µM (inactive) | > 100 µM (inactive) | 36.5 µM (inactive) | 30.8 µM (inactive) | > 100 µM (inactive) | 6.08 µM (inactive) | > 100 µM (inactive) | 13.4 µM (inactive) | > 100 µM (inactive) | > 100 µM (inactive) | > 100 µM | > 100 µM (inactive) | > 100 µM (inactive) | 52.5 µM (inactive) | > 100 µM (inactive) | 70.5 µM (inactive)
11 | O=C(NCCCCNCCCNC(=O)c1cc(-c2ccccc2)nc2ccccc12)c1cc(-c2ccccc2)nc2ccccc12 | 1.8 µM (inactive) | 1.76 µM (inactive) | 1.81 µM (inactive) | 1.79 µM (inactive) | – | 1.78 µM (inactive) | 2.35 µM (inactive) | 1.78 µM (inactive) | 1.55 µM (inactive) | 1.44 µM (inactive) | 1.71 µM (inactive) | 2.5 µM (inactive) | 2.26 µM (inactive) | 1.91 µM (inactive) | 1.82 µM | 1.69 µM (inactive) | 1.85 µM (inactive) | 1.7 µM (inactive) | 1.97 µM (inactive) | 1.62 µM (inactive)
12 | Cc1cc(N2CCCCC2)nc2ccc(Cc3ccc4nc(N5CCCCC5)cc(C)c4c3)cc12 | 98.9 µM (inactive) | > 100 µM (inactive) | 32.1 µM (inactive) | > 100 µM (inactive) | > 100 µM (inactive) | > 100 µM (inactive) | 24.2 µM (inactive) | > 100 µM (inactive) | > 100 µM (inactive) | 48.4 µM (inactive) | > 100 µM (inactive) | 35.8 µM (inactive) | > 100 µM (inactive) | > 100 µM (inactive) | 79.6 µM | > 100 µM (inactive) | > 100 µM (inactive) | > 100 µM (inactive) | > 100 µM (inactive) | –
13 | CCCCCCCCCCCCCC(=O)O.O=CC(O)C(O)C(OC1OC(CO)C(O)C(O)C1O)C(O)CO (stereo not drawn) | > 100 µM (inactive) | > 100 µM (inactive) | 26.4 µM (inactive) | 40.6 µM (inactive) | > 100 µM (inactive) | > 100 µM (inactive) | 1 µM (active) | 83.8 µM (inactive) | 26.3 µM (inactive) | 56.8 µM (inactive) | > 100 µM (inactive) | 19.8 µM (inactive) | > 100 µM (inactive) | > 100 µM (inactive) | 22.9 µM | > 100 µM (inactive) | 28.8 µM (inactive) | 23.2 µM (inactive) | 80.4 µM (inactive) | –
14 | Cc1c(Cl)ccc2c(=O)c3cccc(CC(=O)O)c3oc12 | > 100 µM (inactive) | > 100 µM (inactive) | > 100 µM (inactive) | > 100 µM (inactive) | – | > 100 µM (inactive) | > 100 µM (inactive) | > 100 µM (inactive) | > 100 µM (inactive) | > 100 µM (inactive) | > 100 µM (inactive) | > 100 µM (inactive) | > 100 µM (inactive) | > 100 µM (inactive) | > 100 µM | > 100 µM (inactive) | > 100 µM (inactive) | > 100 µM (inactive) | > 100 µM (inactive) | > 100 µM (inactive)
15 | Cc1ccn2c(CCc3nnc4cc(C)ccn34)nnc2c1 | > 100 µM (inactive) | > 100 µM (inactive) | – | > 100 µM (inactive) | > 100 µM (inactive) | > 100 µM (inactive) | 15 µM (inactive) | > 100 µM (inactive) | > 100 µM (inactive) | > 100 µM (inactive) | > 100 µM (inactive) | > 100 µM (inactive) | > 100 µM (inactive) | > 100 µM (inactive) | > 100 µM | > 100 µM (inactive) | > 100 µM (inactive) | > 100 µM (inactive) | > 100 µM (inactive) | –

From ChEMBL document CHEMBL1201862, “PubChem BioAssay data set” (2004)
